Test results from PMC5740067 (Scientific Reports, 2017).
Entries after “also recorded” stand apart in the source; their conditions may differ. Where two headings read alike, the source gives them in different places.

Assays:
OccJ WT [1] = target: T1, OccJ WT (Agrobacterium tumefaciens, UniProt P0A4F8); assay: biochemical; assay type: binding
T1 construct: The mature PBP OccJ (256 aa without the signal peptide) expression plasmid was obtained by cloning the occJ gene lacking the first twenty residues; hexahistidine (C); made in house; host or cells: E. coli BL21
T1 sequence (P0A4F8 21-276): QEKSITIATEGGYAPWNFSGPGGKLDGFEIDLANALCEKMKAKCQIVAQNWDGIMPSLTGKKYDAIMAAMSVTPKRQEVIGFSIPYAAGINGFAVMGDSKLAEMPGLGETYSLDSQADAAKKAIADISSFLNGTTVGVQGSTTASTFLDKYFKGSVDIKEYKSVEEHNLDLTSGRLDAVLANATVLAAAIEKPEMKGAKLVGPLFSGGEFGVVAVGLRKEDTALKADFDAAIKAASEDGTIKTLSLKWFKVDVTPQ
Description: (§1) Binding of ligands to OccJ, NocT, LAO and protein mutants was monitored by autofluorescence by exciting the protein at a wavelength of 295 nm and monitoring the quenching of fluorescence emission of tryptophans at 335 nm. All experiments were performed at 20 °C in 96 wells plates (1/2 Area Plate-96F, Perkin Elmer) using Tecan Infinite M1000 reader (Tecan), in 50 mM Tris-HCl pH 8.0, 150 mM NaCl buffer with a fixed amount of proteins (1 µM) and increasing concentrations of ligand. […] The data were analysed using Origin® 7 software and fitted to the equation f = ΔFluorescencemax * abs(x)/(K D + abs(x)).

NocT G97S [2] = target: T2, NocT G97S (Agrobacterium fabrum, UniProt P35120, G97S); assay type: binding, Agrobacterium tumefaciens; conditions: intrinsic protein fluorescence titration, 20 °C, pH 8.0
T2 construct: Cloning of mature OccJ, NocT-G97S, OccJ-S91G, OccJ-N202D, LAO and LAO-Q122A; made in house; host or cells: E. coli BL21
T2 sequence (P35120 26-283 G97S): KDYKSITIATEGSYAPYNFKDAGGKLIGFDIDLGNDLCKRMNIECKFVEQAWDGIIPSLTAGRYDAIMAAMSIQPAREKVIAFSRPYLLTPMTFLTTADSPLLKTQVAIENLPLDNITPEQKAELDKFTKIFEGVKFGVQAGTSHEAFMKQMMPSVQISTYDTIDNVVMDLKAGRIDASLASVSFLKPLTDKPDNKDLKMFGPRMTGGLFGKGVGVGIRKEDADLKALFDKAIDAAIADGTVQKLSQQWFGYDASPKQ

OccJ S91G [3] = target: T3, OccJ S91G (Agrobacterium tumefaciens, UniProt P0A4F8, S91G); assay: OccJ S91G ligand binding, fluorescence titration; conditions: intrinsic protein fluorescence titration
T3 construct: The mature LAO expression plasmid, LAO-Q122A, OccJ-S91G and OccJ-N202D were chemically synthesized; pET-28a); host or cells: E. coli BL21
T3 sequence (P0A4F8 21-276 S91G): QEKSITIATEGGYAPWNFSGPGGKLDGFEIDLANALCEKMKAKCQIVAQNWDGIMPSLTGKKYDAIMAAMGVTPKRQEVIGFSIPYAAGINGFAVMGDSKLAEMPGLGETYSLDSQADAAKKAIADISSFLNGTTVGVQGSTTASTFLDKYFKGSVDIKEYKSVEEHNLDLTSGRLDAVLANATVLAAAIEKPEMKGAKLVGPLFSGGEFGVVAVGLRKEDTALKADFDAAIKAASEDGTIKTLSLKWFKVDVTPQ
Description: as §1

NocT WT [4] = target: T4, NocT WT (Agrobacterium fabrum, UniProt P35120); conditions: fluorescence titration; octopine and nopaline; ref [6],[14]; read-out: K D (F); cited from earlier work
T4 construct: Cloning of mature OccJ, NocT-G97S, OccJ-S91G, OccJ-N202D, LAO and LAO-Q122A; made in house
T4 sequence (P35120 26-283): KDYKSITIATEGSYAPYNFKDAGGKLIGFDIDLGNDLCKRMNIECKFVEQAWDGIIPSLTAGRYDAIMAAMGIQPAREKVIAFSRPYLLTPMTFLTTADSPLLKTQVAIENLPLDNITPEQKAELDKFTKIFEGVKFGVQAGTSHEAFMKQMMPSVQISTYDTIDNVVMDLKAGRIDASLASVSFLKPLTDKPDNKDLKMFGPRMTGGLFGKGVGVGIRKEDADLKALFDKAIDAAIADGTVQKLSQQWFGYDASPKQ

NocT WT [5] = target: T4, NocT WT; assay type: binding, Agrobacterium tumefaciens; conditions: ITC, 20 °C
Description: (§2) Isothermal titration microcalorimetry experiments were performed with an ITC200 isothermal titration calorimeter from MicroCal (GE Healthcare). The experiments were carried out at 20 °C. Protein concentration in the microcalorimeter cell (0.2 mL) varied from 20 to 150 µM. Nineteen injections of 2 µL of ligand solution (amino acids, opines and octopine derivatives) at concentration ranging from 240 µM to 1.5 mM were performed at intervals of 180 s while stirring at 500 rpm. The experimental data were fitted to theoretical titration curves with software supplied by MicroCal (ORIGIN®). This software uses the relationship between the heat generated by each injection and ΔH (enthalpy change in kcal/mol), Ka (the association binding constant in M^−1), n (the number of binding sites), total protein concentration and free and total ligand concentrations.

OccJ WT [6] = target: T1, OccJ WT; assay: OccJ WT ligand binding, isothermal titration microcalorimetry; conditions: ITC, 20 °C
Description: as §2

NocT WT [7] = target: T4, NocT WT; assay type: binding, Agrobacterium tumefaciens; conditions: fluorescence titration; 20 °C; pH 8.0; octopine family members and analogues; read-out: Kd (F)
Description: as §1

NocT WT [8] = target: T4, NocT WT; conditions: ITC; octopine; ref [6],[14]; read-out: K D (ITC) (converted); cited from earlier work
OccJ N202D [9] = target: T5, OccJ N202D (Agrobacterium tumefaciens, UniProt P0A4F8, N202D); assay type: binding; conditions: intrinsic protein fluorescence titration; 20 °C; pH 8.0; read-out: K D (F)
T5 construct: The mature LAO expression plasmid, LAO-Q122A, OccJ-S91G and OccJ-N202D were chemically synthesized; pET-28a); host or cells: E. coli BL21
T5 sequence (P0A4F8 21-276 N202D): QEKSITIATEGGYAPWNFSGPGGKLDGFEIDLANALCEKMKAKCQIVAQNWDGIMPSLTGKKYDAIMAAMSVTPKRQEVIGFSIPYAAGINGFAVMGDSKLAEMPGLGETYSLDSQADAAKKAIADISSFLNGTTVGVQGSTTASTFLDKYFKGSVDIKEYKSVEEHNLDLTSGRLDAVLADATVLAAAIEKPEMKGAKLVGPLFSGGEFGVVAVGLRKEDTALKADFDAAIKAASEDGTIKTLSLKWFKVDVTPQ

NocT G97S [10] = assay type: binding, Agrobacterium tumefaciens
OccJ S91G [11] = target: T3, OccJ S91G; assay type: binding; conditions: ITC, 20 °C
Description: as §2

OccJ N202D [12] = target: T5, OccJ N202D; assay type: binding; conditions: ITC, 20 °C
Description: as §2

LAO WT = target: T6, LAO WT (Salmonella typhimurium, UniProt P02911); assay: biochemical; assay type: binding, Salmonella enterica; conditions: ITC, 20 °C
T6 construct: The mature LAO expression plasmid, LAO-Q122A, OccJ-S91G and OccJ-N202D were chemically synthesized; pET-28a); host or cells: E. coli BL21
T6 sequence (P02911 23-260): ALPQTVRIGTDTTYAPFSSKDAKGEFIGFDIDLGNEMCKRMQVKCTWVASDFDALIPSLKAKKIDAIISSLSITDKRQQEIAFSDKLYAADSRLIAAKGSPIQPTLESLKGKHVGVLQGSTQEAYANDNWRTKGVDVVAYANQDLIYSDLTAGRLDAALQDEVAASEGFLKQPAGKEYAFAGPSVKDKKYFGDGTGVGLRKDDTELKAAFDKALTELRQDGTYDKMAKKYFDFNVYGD
Description: as §2

LAO Q122A = target: T7, LAO Q122A (Salmonella typhimurium, UniProt P02911, Q144A); assay: LAO Q122A ligand binding, ITC; set-up: species or system Salmonella enterica; conditions: ITC, 20 °C
T7 construct: The mature LAO expression plasmid, LAO-Q122A, OccJ-S91G and OccJ-N202D were chemically synthesized; pET-28a); host or cells: E. coli BL21
T7 sequence (P02911 23-260 Q144A): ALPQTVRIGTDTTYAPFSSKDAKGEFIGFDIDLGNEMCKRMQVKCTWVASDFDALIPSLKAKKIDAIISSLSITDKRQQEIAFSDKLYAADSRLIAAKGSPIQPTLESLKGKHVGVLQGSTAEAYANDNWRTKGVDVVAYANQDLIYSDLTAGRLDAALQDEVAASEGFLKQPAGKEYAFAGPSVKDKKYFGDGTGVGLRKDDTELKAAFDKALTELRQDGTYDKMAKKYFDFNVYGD
Description: as §2

NocT G97S [13] = target: T2, NocT G97S; assay type: binding, Agrobacterium tumefaciens; conditions: ITC, 20 °C
Description: as §2

LAO = target: LAO; set-up: method as in PMID 1400387; conditions: ref [20]; cited from earlier work
[14] = intrinsic protein fluorescence titration, 20 °C, 50 mM Tris-HCl pH 8.0, 150 mM NaCl, 1 µM protein, read-out: K D (F)
[15] = fluorescence titration, read-out: apparent dissociation constant K D

## NC(N)=NCCC[C@H](N[C@H](CCC(=O)O)C(=O)O)C(=O)O [nopaline]
OccJ WT [1]; intrinsic protein fluorescence titration, 20 °C, 50 mM Tris-HCl pH 8.0, 150 mM NaCl, 1 µM protein
  K D (F): No fluorescence intensity change was detected; also recorded: no interaction
NocT G97S [2]
  K D (F): abolished the nopaline binding ability
OccJ S91G [3]; 20 °C, pH 8.0
  K D (F): not a ligand
NocT WT [4]
  Kd: 3.7 ± 0.6 µM

## NC(N)=NCCC[C@H](NCC(=O)O)C(=O)O [noroctopine]
OccJ WT [1]; [14]
  Kd: 0.19 ± 0.05 µM
OccJ WT [1]; opine analogue versus its amino acid
  fold better affinity of OccJ compared with arginine or ornithine alone: 10 fold
NocT WT [5]
  Enthalpy (ΔH): 0.872 kcal/mol
  Entropic contribution (-TΔS): -6.39 kcal/mol
  Entropy (ΔS): 21.8 cal/mol/deg
  Free enthalpy (ΔG): -5.518 kcal/mol
  Kd: 78 ± 9 µM
OccJ WT [6]
  Enthalpy (ΔH): -4.804 kcal/mol
  Entropic contribution (-TΔS): -4.367 kcal/mol
  Entropy (ΔS): 14.8 cal/mol/deg
  Free enthalpy (ΔG): -9.171 kcal/mol
  Kd: 0.15 ± 0.01 µM
NocT WT [7]
  Kd: 33.4 ± 2.7 µM

## NCCC[C@H](NCC(=O)O)C(=O)O [noroctopinic acid]
NocT WT [5]
  Enthalpy (ΔH): 0.62 kcal/mol
  Entropic contribution (-TΔS): -6.83 kcal/mol
  Entropy (ΔS): 23.3 cal/mol/deg
  Free enthalpy (ΔG): -6.21 kcal/mol
  Kd: 23 ± 5 µM
OccJ WT [6]
  Enthalpy (ΔH): -7.202 kcal/mol
  Entropic contribution (-TΔS): -1.934 kcal/mol
  Entropy (ΔS): 6.60 cal/mol/deg
  Free enthalpy (ΔG): -9.136 kcal/mol
  Kd: 0.15 ± 0.01 µM
NocT WT [7]
  Kd: 19.3 ± 1.37 µM

## C[C@@H](N[C@@H](CCCN=C(N)N)C(=O)O)C(=O)O [octopine]
OccJ WT [1]; [15]
  Kd: 0.004 ± 0.001 µM
OccJ WT [1]; [14]
  Kd: 0.004 ± 0.0001 µM
NocT WT [8]
  Kd: 9.9 µM
OccJ N202D [9]
  Kd: 0.006 ± 0.001 µM
NocT G97S [10]
  fold lower affinity of NocT G97S compared with the WT: 10 fold
NocT G97S [2]; read-out: K D (F)
  Kd: 63.8 ± 13.8 µM
OccJ S91G [11]
  Enthalpy (ΔH): -0.726 kcal/mol
  Entropic contribution (-TΔS): -5.569 kcal/mol
  Entropy (ΔS): 19 cal/mol/deg
  Free enthalpy (ΔG): -6.295 kcal/mol
  Kd: 20 µM
OccJ N202D [12]
  Enthalpy (ΔH): -4.12 kcal/mol
  Entropic contribution (-TΔS): -6.345 kcal/mol
  Entropy (ΔS): 21.5 cal/mol/deg
  Free enthalpy (ΔG): -10.465 kcal/mol
  Kd: 0.016 µM
LAO WT
  K D (ITC): No interaction; also recorded: cannot bind
LAO Q122A
  Enthalpy (ΔH): -3.318 kcal/mol
  Entropic contribution (-TΔS): -2.673 kcal/mol
  Entropy (ΔS): 9.12 cal/mol/deg
  Free enthalpy (ΔG): -5.991 kcal/mol
LAO Q122A; read-out: K D (ITC)
  Kd: 34 ± 5 µM
NocT G97S [13]
  Enthalpy (ΔH): 0.687 kcal/mol
  Entropic contribution (-TΔS): -6.42 kcal/mol
  Entropy (ΔS): 21.9 cal/mol/deg
  Free enthalpy (ΔG): -5.733 kcal/mol
  Kd: 52 µM
OccJ S91G [3]
  fold lower affinity of OccJ-S91G than OccJ: over 7,000 fold
OccJ S91G [3]; 20 °C, pH 8.0, read-out: K D (F)
  Kd: 29.9 ± 3.8 µM
OccJ WT [6]
  Enthalpy (ΔH): -4.837 kcal/mol
  Entropic contribution (-TΔS): -5.98 kcal/mol
  Entropy (ΔS): 20.4 cal/mol/deg
  Free enthalpy (ΔG): -10.817 kcal/mol
  Kd: 0.009 µM
NocT WT [4]
  Kd: 6.1 ± 0.7 µM

## C[C@@H](N[C@@H](CCCN)C(=O)O)C(=O)O [octopinic acid]
OccJ WT [1]; [15]
  Kd: 0.017 ± 0.003 µM
OccJ WT [1]; [14]
  Kd: 0.017 ± 0.003 µM
NocT WT [5]
  Enthalpy (ΔH): -3.658 kcal/mol
  Entropic contribution (-TΔS): -3.517 kcal/mol
  Entropy (ΔS): 12.0 cal/mol/deg
  Free enthalpy (ΔG): -7.175 kcal/mol
  Kd: 4.4 ± 0.4 µM
OccJ WT [6]
  Enthalpy (ΔH): -9.547 kcal/mol
  Entropic contribution (-TΔS): -0.41 kcal/mol
  Entropy (ΔS): 1.40 cal/mol/deg
  Free enthalpy (ΔG): -9.957 kcal/mol
  Kd: 0.038 ± 0.007 µM
NocT WT [7]
  Kd: 1.8 ± 0.3 µM

## NCCC[C@H](N)C(=O)O [ornithine]
OccJ WT [1]
  Kd: 31.2 ± 3.5 µM
OccJ S91G [3]; 20 °C, pH 8.0
  K D (F): can no longer bind
OccJ WT [6]
  Enthalpy (ΔH): -1.102 kcal/mol
  Entropic contribution (-TΔS): -4.778 kcal/mol
  Entropy (ΔS): 16.3 cal/mol/deg
  Free enthalpy (ΔG): -5.88 kcal/mol
  Kd: 40.5 µM
LAO
  previous reported affinity: nanomolar range

## homo-octopine
NocT WT [5]
  Enthalpy (ΔH): -3.832 kcal/mol
  Entropic contribution (-TΔS): -2.222 kcal/mol
  Entropy (ΔS): 7.58 cal/mol/deg
  Free enthalpy (ΔG): -6.054 kcal/mol
OccJ WT [6]
  Enthalpy (ΔH): -7.611 kcal/mol
  Entropic contribution (-TΔS): -0.806 kcal/mol
  Entropy (ΔS): 2.75 cal/mol/deg
  Free enthalpy (ΔG): -8.417 kcal/mol
